Laboratory results as given in patent US20190388421A1, “NOVEL COMPOUNDS AND PHARMACEUTICAL COMPOSITIONS THEREOF FOR THE TREATMENT OF FIBROSIS” (Galapagos NV, priority 2016, published 2019).

What was measured:
[1] = target: T1, human GPCR sphingosine 1-phosphate receptor 1 (S1PR1) (Homo sapiens, UniProt P21453); assay: S1PR1 selectivity assay (Ca2+ flux, antagonist); type: cell-based; conditions: S1P1 antagonist EC50, CHO cells overexpressing human S1PR1 and Gq protein
T1 construct: host or cells: CHO
T1 sequence (P21453 whole entry): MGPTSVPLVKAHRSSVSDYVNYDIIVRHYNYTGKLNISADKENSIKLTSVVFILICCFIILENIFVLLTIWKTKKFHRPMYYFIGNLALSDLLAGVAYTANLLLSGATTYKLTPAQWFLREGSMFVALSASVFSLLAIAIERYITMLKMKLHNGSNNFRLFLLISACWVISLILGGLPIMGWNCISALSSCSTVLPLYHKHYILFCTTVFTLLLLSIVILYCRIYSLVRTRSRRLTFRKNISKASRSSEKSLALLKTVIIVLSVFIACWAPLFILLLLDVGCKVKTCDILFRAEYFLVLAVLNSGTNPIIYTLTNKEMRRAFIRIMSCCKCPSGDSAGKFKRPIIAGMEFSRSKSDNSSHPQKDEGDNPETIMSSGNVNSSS
Method: (§1) After readout of the agonist activity, the plates are incubated for 15 min at 37° C. and 5% CO2. Then, cells are stimulated with 10 μL Sphingosine-1-Phosphate (S1P) (Avanti Polar lipids-860492P) at its EC80 concentration. Intracellular Ca^2+ changes are immediately measured by reading fluorescence during 3 min (FDSS/μCELL reader). The ratio of the maximal fluorescence over the background fluorescence before compound injection is used to determine compound response.
(§2) For EC50 determination, a 10 point dilution series of compounds starting from 23.3 μM and 20 μM highest final concentration for agonist and antagonist respectively, ⅓ dilution was performed.
(§3) The obtained ratio's for agonist and antagonist readout were normalized versus vehicle and EC100 of S1P as controls for agonist mode and versus vehicle and EC80 of S1P for antagonist mode. From these normalized data EC50 of the compounds are derived.
(§4) To evaluate the selectivity of the compounds for S1PR2 over S1PR1 and S1PR5, a similar assay set up as described above for the S1PR2 calcium flux assays was performed: CHO cells stably overexpressing human GPCR sphingosine 1-phosphate receptor 1 and Gq protein (Euroscreen, FAST-0197A) or overexpressing human GPCR sphingosine 1-phosphate receptor 5 and Gq protein were used (Perkin Elmer, ES-593-A). In case of the S1PR5 assay triggering was done with an S1PR5 specific agonist instead of with S1P (Hobson et al., 2015).

[2] = target: T2, human GPCR sphingosine 1-phosphate receptor 5 (S1PR5) (Homo sapiens, UniProt Q9H228); assay: S1PR5 selectivity assay (Ca2+ flux, antagonist, S1PR5 specific agonist trigger); type: cell-based; conditions: S1P5 antagonist EC50, CHO cells overexpressing human S1PR5 and Gq protein
T2 construct: host or cells: CHO
T2 sequence (Q9H228 whole entry): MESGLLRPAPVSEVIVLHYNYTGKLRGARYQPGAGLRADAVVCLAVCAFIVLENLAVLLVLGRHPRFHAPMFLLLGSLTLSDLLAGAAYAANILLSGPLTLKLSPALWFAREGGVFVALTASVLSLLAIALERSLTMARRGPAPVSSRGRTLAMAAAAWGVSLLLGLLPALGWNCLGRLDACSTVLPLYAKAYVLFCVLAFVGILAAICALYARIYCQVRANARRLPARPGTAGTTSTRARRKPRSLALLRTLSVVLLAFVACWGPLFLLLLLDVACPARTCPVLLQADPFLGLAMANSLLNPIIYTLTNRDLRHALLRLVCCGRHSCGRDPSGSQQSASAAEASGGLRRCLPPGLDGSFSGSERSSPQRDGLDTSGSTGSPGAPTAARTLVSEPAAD
Method: as §1, §2, §3, §4

S1PR2 = target: T3, S1PR2 (Homo sapiens, UniProt O95136); assay: GTP-γS binding assay ([35S]GTPγS, S1P at EC80, S1PR2 membranes); type: biochemical; conditions: membranes from stable cell line over expressing S1PR2, read-out: S1PR2 EC
T3 construct: expressed in transfected cells
T3 sequence (O95136 whole entry): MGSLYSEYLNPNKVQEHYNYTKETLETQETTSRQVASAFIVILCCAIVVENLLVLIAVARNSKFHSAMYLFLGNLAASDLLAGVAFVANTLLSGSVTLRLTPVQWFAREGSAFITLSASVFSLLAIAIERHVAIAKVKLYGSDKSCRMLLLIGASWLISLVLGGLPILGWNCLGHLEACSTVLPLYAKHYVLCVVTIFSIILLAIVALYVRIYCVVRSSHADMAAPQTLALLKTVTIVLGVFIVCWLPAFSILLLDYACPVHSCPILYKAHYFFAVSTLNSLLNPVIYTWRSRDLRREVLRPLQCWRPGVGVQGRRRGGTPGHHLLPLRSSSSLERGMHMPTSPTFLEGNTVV
Method: The following assay can be used for determination of S1PR2 activation. The [^35S] GTPγS assay measures the level of G protein activation following agonist occupation of a GPCR, by determining the binding of the non-hydrolysable analog [^35S] GTPγS to Gα subunits.
The assay is performed in a 96 well plate where the following reagents are added. First 50 μL compound is added into the assay plate, followed by addition of 20 μL S1P at EC80 concentration (concentration which gives 80% of the activity of S1PR2). Then, 30 μL of a mixture consisting of membranes-GTPγS-SpA beads is added [mixture consists of 2.5 μg/well membranes derived from stable cell line over expressing S1PR2 (membranes are pre-incubated with 1 μM GDP for 15 min at 4° C.), 0.1 nM [35S]GTPγS (Perkin Elmer, NEG030) and 0.5 mg/well PVT-WGA SpA beads (Perkin Elmer, RPNQ0001)]. All components are diluted in assay buffer containing 20 mM Tris pH 7.5; 10 mM MgCl2; 100 mM NaCl; 0.1% BSA FAF; 50 ug/ml saponin. After an incubation for 4 h at room temperature, plates are centrifuged at 2000 rpm during 20 min. Plates are read on a Topcount reader (Perkin Elmer) immediately after centrifugation (readout time, 1 min/well).

[3] = target: T4, human GPCR sphingosine 1-phosphate receptor 2 (S1PR2) (Homo sapiens, UniProt O95136); assay: S1P2 antagonist assay (Ca2+ flux, S1P at EC80); type: cell-based; conditions: CHO-S1PR2 cells, highest concentration 20 μM
T4 construct: host or cells: CHO
T4 sequence (O95136 whole entry): as above
Method: Triggering of S1PR2 by administration of Sphingosine-1-phosphate leads to a transient increase in intracellular Ca^2+. The Ca^2+ flux assays are measuring the release of Ca^2+ intracellularly by use of a Ca^2+ sensitive fluorescent dye. The assay is firstly run in agonist mode (incubation of compounds alone) to ensure that the Ca^2+ released measured is not caused by the test compound having an agonistic effect. Then the assay is continued in antagonist mode (Sphingosine-1-Phosphate added to incubated medium containing the test compounds).
CHO cells stably overexpressing human GPCR sphingosine 1-phosphate receptor 2 (CHO—S1PR2 Perkin Elmer; ES-594-A) are seeded from a frozen stock in 384 wells sterile microplates (50 μL; 7,500 cells/well) and are incubated overnight at 37° C. and 5% CO2. The next day cells are washed twice with starvation medium (F-12 Ham's medium containing 0.1% BSA (Fatty acid free: FAF)) and left in […] starvation medium for 1 h at 37° C., 5% CO2. After this starvation cells are incubated with […] buffer containing the Ca^2+-sensitive fluorescent dye (0.5 mg Fluo8+125 mg Allura Red in 100 ml of 1% DMSO, in HBSS+20 mM Hepes+5 mM probenecid). The cells are incubated for an additional 1 hour after which 10 μL compounds, diluted in HBSS buffer with 20 mM Hepes and 0.1% BSA (FAF), are added to the cells and intracellular Ca^2+ changes are immediately measured by reading fluorescence during 3 min (FDSS/μCELL reader). The ratio of the maximal fluorescence over the background fluorescence before compound injection is used to determine compound response.
as §1, §2, §3

SMILES | EC50 [1] [nM] | EC50 [2] [nM] | EC50 (S1PR2) [nM] | EC50 [3] [nM]
CCOc1cc(NC(=O)NCc2cc(C)c(N3CC(C)O[C@H](C)C3)nn2)cc(C(F)(F)F)n1 (stereo in doubt) [Compound 100, 1-[[6-[(2R,6S)-2,6-dimethyl-morpholin-4-yl]-5-methyl-pyridazin-3-yl]methyl]-3-(2-ethoxy-6-(trifluoromethyl)-4-pyridyl]urea] | 6610 | 2480 | – | –
Cc1cc(CNC(=O)Nc2cc(Cl)cc(Cl)c2)nnc1-c1cn(C)nc1C(F)(F)F [Compound 6, 1-(3,5-dichlorophenyl)-3-[[5-methyl-6-[1-methyl-3-(trifluoromethyl)pyrazol-4-yl]pyridazin-3-yl]methyl]urea] | – | – | 50.2 | 16.9
Cc1cc(CNC(=O)Nc2cnc(OCC(F)F)c(C(F)(F)F)c2)nnc1-c1cn(C)nc1C(F)(F)F [Compound 7, 1-[6-(2,2-difluoroethoxy)-5-(trifluoromethyl)-3-pyridyl]-3-[[5-methyl-6-[1-methyl-3-(trifluoromethyl)pyrazol-4-yl]pyridazin-3-yl]methyl]urea] | ≥ 19800 | ≥ 19800 | 330 | 17.8
Cc1cc(CNC(=O)Nc2cnc(OCC3CC3)c(C(F)(F)F)c2)nnc1-c1cn(C)nc1C(F)(F)F [Compound 11, 1-[6-cyclopropyl-methoxy-5-(trifluoromethyl)-3-pyridyl]-3-[[5-methyl-6-[1-methyl-3-(trifluoromethyl)pyrazol-4-yl]pyridazin-3-yl]methyl]urea] | – | – | 716 | 49.6
Cc1cc(CNC(=O)Nc2cnc(OCC(F)(F)F)c(C(F)(F)F)c2)nnc1-c1cn(C)nc1C(F)(F)F [Compound 12, 1-[[5-methyl-6-[1-methyl-3-(trifluoromethyl)pyrazol-4-yl]pyridazin-3-yl]methyl]-3-[6-(2,2,2-trifluoroethoxy)-5-(trifluoromethyl)-3-pyridyl]urea] | – | – | 590 | 11.7
Cc1cc(CNC(=O)Nc2cnc(OCC3CC3)c(Cl)c2)nnc1-c1cn(C)nc1C(F)(F)F [Compound 13, 1-[5-chloro-6-(cyclopropyl-methoxy)-3-pyridyl]-3-[[5-methyl-6-[1-methyl-3-(trifluoromethyl)pyrazol-4-yl]pyridazin-3-yl]methyl]urea] | – | – | 1120 | 40.3
Cc1cc(CNC(=O)Nc2cc(Cl)nc(OCC(F)(F)F)c2)nnc1-c1cn(C)nc1C(F)(F)F [Compound 14, 1-[2-chloro-6-(2,2,2-trifluoroethoxy)-4-pyridyl]-3-[[5-methyl-6-[1-methyl-3-(trifluoromethyl)pyrazol-4-yl]pyridazin-3-yl]methyl]urea] | – | – | 225 | 24.2
Cc1cc(CNC(=O)Nc2cc(OCC(F)F)nc(C(F)(F)F)c2)nnc1-c1cn(C)nc1C(F)(F)F [Compound 19, 1-[2-(2,2-difluoroethoxy)-6-(trifluoromethyl)-4-pyridyl]-3-[[5-methyl-6-[1-methyl-3-(trifluoromethyl)pyrazol-4-yl]pyridazin-3-yl]methyl]urea] | – | – | 88.7 | 17.1
Cc1cc(CNC(=O)Nc2cc(OCC(F)F)nc(C3CC3)c2)nnc1-c1cn(C)nc1C(F)(F)F [Compound 29, 1-[2-cyclopropyl-6-(2,2-difluoroethoxy)-4-pyridyl]-3-[[5-methyl-6-[1-methyl-3-(trifluoromethyl)pyrazol-4-yl]pyridazin-3-yl]methyl]urea] | – | – | 275 | 27.3
CCOc1cc(NC(=O)NCc2cc(C)c(-c3cn(C)nc3C(F)(F)F)nn2)nc(OCC)n1 [Compound 31, 1-(2,6-diethoxy-pyrimidin-4-yl)-3-[[5-methyl-6-[1-methyl-3-(trifluoromethyl)pyrazol-4-yl]pyridazin-3-yl]methyl]urea] | – | – | 1650 | 3140
Cc1cc(CNC(=O)Nc2cc(Cl)c(F)c(Cl)c2)nnc1-c1cn(C)nc1C(F)(F)F [Compound 32, 1-(3,5-dichloro-4-fluoro-phenyl)-3-[[5-methyl-6-[1-methyl-3-(trifluoromethyl)pyrazol-4-yl]pyridazin-3-yl]methyl]urea] | – | – | 164 | 11.1
Cc1cc(CNC(=O)Nc2cc(OCC3CC3(F)F)nc(C(F)(F)F)c2)nnc1-c1cn(C)nc1C(F)(F)F (centres unmarked) [Compound 33, 1-[2-[(2,2-difluoro-cyclopropyl)methoxy]-6-(trifluoromethyl)-4-pyridyl]-3-[[5-methyl-6-[1-methyl-3-(trifluoromethyl)pyrazol-4-yl]pyridazin-3-yl]methyl]urea] | – | – | 164 | 37.1
Cc1cc(CNC(=O)Nc2cc(OCC3CCOC3)nc(C(F)(F)F)c2)nnc1-c1cn(C)nc1C(F)(F)F (centres unmarked) [Compound 36] | – | – | 1800 | 791
CCOc1nc(C(F)(F)F)cc(NC(=O)NCc2cc(C)c(-c3cn(C)nc3C(F)(F)F)nn2)c1Br [Compound 49, 1-[3-bromo-2-ethoxy-6-(trifluoromethyl)-4-pyridyl]-3-[[5-methyl-6-[1-methyl-3-(trifluoromethyl)pyrazol-4-yl]pyridazin-3-yl]methyl]urea] | – | – | – | 11.5
Cc1cc(CNC(=O)Nc2cnc(OCC(F)F)c(Cl)c2)nnc1N1CC(C)OC(C)C1 (centres unmarked) [Compound 84, 1-[5-chloro-6-(2,2-difluoroethoxy)-3-pyridyl]-3-[[6-(2,6-dimethyl-morpholin-4-yl)-5-methyl-pyridazin-3-yl]methyl]urea] | – | – | – | 6510
CCOc1ncc(NC(=O)NCc2cc(C)c(N3CC(C)OC(C)C3)nn2)cc1Cl (centres unmarked) [Compound 86, 1-(5-chloro-6-ethoxy-3-pyridyl)-3-[[6-(2,6-dimethyl-morpholin-4-yl)-5-methyl-pyridazin-3-yl]methyl]urea] | – | – | – | 1360
Cc1cc(CNC(=O)Nc2cnc(OCC3CC3)c(Cl)c2)nnc1N1CC(C)OC(C)C1 (centres unmarked) [Compound 88, 1-[5-chloro-6-(cyclopropyl-methoxy)-3-pyridyl]-3-[[6-(2,6-dimethyl-morpholin-4-yl)-5-methyl-pyridazin-3-yl]methyl]urea] | – | – | – | 4510
CCOc1nc(C)cc(NC(=O)NCc2cc(C)c(N3C[C@@H](C)O[C@@H](C)C3)nn2)c1C [Compound 95, 1-[[6-[(2R,6S)-2,6-dimethyl-morpholin-4-yl]-5-methyl-pyridazin-3-yl]methyl]-3-(2-ethoxy-3,6-dimethyl-4-pyridyl)urea] | 6610 | 809 | – | –
CCOc1cc(N[14C](=O)NCc2cc(C)c(-c3cn(C)nc3C(F)(F)F)nn2)cc(C(F)(F)F)n1 [Compound 98, 1-(2-Ethoxy-6-trifluoromethyl-pyridin-4-yl)-3-[5-methyl-6-(1-methyl-3-trifluoromethyl-1H-pyrazol-4-yl)-pyridazin-3-ylmethyl]-C14 urea] | – | – | 16300 | –
